Columns and labels:
EGFR DTC = assay: Cell Degradation 3: EGFR degradation in BaF3 cells (DTC), HTRF assay; format: cell-based; settings: 16 h treatment, EGFR degradation by HTRF
Description: (§1) Cell Degradation 3 Cell Treatment
(§2) BaF3 cells are treated with compounds diluted in 0.2% DMSO, dilution is done according to the following protocol: (1) make 500× stock solution in DMSO from 5 mM by 4-fold dilution, total 8 doses were included; (2) make 2× solution in cell culture medium by transferring 0.5 μl 500× stock solution into 125 μl medium; (3) 30 μl of 2× solution is added to cells and incubate for 16 h.
(§3) After 16 h treatment, add 20 μl 4×lysis buffer to each well; seal the plate and incubate 1 hour at room temperature on a plate shaker; Once the cells are lysed, 16 μL of cell lysate are transferred to a PE 384-well HTRF detection plate (for triple mutant cells, the lysate were diluted by the qual volume 1×lysis buffer before transfer); 4 μL of pre-mixed HTRF antibodies are added to each well; Cover the plate with a plate sealer, spin 1000 rpm for 1 min, Incubate overnight at room temperature; Read on BMG PheraStar with HTRF protocol (337 nm-665 nm-620 nm).
(§4) The IC50 (DC50) value of a compound can be obtained by fitting the following equation Y=Bottom+(TOP−Bottom)/(1+((IC50/X)^hillslope))
(§5) Wherein, X and Y are known values, and IC50, Hillslope, Top and Bottom are the parameters obtained by fitting with software. Y is the inhibition percentage (calculated from the equation), X is the concentration of the compound; IC50 is the concentration of the compound when the 50% inhibition is reached. The smaller the IC50 value is, the stronger the inhibitory ability of the compound is. Vice versa, the higher the IC50 value is, the weaker the ability the inhibitory ability of the compound is; Hillslope represents the slope of the fitted curve, generally around 1*; Bottom represents the minimum value of the curve obtained by data fitting, which is generally 0%±20%; Top represents the maximum value of the curve obtained by data fitting, which is generally 100%±20%. The experimental data were fitted by calculating and analyzing with Dotmatics data analysis software.

EGFR LTC = target: T1, EGFR LTC (Homo sapiens, UniProt P00533, C797S/L858R/T790M); assay: Cell Degradation 3: EGFR degradation in BaF3 cells (LTC), HTRF assay; format: cell-based; settings: 16 h treatment, EGFR degradation by HTRF
T1 construct: expressed in transfected cells; host or cells: BaF3
T1 sequence (P00533 25-1210 T790M/C797S/L858R): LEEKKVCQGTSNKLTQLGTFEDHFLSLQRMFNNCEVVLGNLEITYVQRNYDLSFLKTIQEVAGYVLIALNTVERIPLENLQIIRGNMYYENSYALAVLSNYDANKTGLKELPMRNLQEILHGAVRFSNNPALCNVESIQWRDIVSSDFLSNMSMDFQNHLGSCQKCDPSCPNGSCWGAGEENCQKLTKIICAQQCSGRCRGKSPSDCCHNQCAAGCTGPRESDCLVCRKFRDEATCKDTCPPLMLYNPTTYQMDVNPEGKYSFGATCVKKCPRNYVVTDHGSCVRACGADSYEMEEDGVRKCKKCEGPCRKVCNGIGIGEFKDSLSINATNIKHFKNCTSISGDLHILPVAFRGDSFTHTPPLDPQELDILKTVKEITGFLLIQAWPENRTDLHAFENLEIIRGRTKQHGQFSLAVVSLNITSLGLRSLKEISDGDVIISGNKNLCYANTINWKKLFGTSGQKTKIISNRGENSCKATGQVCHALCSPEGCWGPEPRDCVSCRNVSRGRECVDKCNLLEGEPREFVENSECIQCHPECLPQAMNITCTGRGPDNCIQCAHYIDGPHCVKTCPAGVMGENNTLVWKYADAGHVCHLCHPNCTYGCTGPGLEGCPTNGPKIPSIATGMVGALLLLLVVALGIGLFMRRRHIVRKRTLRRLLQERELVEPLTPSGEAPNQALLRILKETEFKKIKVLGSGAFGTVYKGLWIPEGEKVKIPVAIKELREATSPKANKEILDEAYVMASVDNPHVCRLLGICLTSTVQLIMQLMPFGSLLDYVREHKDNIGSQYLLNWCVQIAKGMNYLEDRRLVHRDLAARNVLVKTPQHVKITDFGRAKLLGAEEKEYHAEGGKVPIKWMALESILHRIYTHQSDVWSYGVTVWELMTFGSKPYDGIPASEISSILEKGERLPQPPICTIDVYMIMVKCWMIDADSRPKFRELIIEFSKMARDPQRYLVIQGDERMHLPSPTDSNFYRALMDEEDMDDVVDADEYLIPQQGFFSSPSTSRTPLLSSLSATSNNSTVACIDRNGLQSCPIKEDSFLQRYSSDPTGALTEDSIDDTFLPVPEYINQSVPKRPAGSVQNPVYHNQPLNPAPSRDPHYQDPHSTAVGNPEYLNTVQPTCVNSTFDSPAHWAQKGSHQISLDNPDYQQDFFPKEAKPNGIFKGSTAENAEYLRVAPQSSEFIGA
Description: as §1, §2, §3, §4, §5

| Compound | DC50 (EGFR DTC) | DC50 (EGFR LTC) |
| --- | --- | --- |
| COc1cc(N2CCC(N3CCN(C[C@H]4C[C@H](N(C)c5ccc6c(c5)C(=O)N(C5CCC(=O)NC5=O)C6=O)C4)CC3)CC2)c(C)cc1Nc1ncc(Br)c(Nc2cccc3c2N(S(C)(=O)=O)CC3)n1 (stereo partly drawn) [Example 165, 5-(((1r,3r)-3-((4-(1-(4-((5-bromo-4-((1-(methylsulfonyl)indolin-7-yl)amino)pyrimidin-2-yl)amino)-5-methoxy-2-methylphenyl)piperidin-4-yl)piperazin-1-yl)methyl)cyclobutyl)(methyl)amino)-2-(2,6-dioxopiperidin-3-yl)isoindoline-1,3-dione] | 91 nM | 100 nM |
| COc1cc(N2CCC(N3CCN(CCOc4cccc5c4C(=O)N(C4CCC(=O)NC4=O)C5=O)CC3)CC2)c(C)cc1Nc1ncc(Br)c(Nc2cccc3c2N(S(C)(=O)=O)CC3)n1 (stereo not drawn) [Example 166, 4-(2-(4-(1-(4-((5-bromo-4-((1-(methylsulfonyl)indolin-7-yl)amino)pyrimidin-2-yl)amino)-5-methoxy-2-methylphenyl)piperidin-4-yl)piperazin-1-yl)ethoxy)-2-(2,6-dioxopiperidin-3-yl)isoindoline-1,3-dione] | 175 nM | 247 nM |
| COc1cc(N2CCC(N3CCN(C4CCN(c5ccc6c(c5)C(=O)N(C5CCC(=O)NC5=O)C6=O)CC4)CC3)CC2)c(C)cc1Nc1ncc(Br)c(Nc2cccc3c2N(S(C)(=O)=O)CC3)n1 (stereo not drawn) [Example 167, 5-(4-(4-(1-(4-((5-bromo-4-((1-(methylsulfonyl)indolin-7-yl)amino)pyrimidin-2-yl)amino)-5-methoxy-2-methylphenyl)piperidin-4-yl)piperazin-1-yl)piperidin-1-yl)-2-(2,6-dioxopiperidin-3-yl)isoindoline-1,3-dione] | 225 nM | > 10000 nM |
| COc1cc(N2CCC(N3CCN(CC4CN(c5ccc(C6CCC(=O)NC6=O)c(F)c5)C4)CC3)CC2)c(C)cc1Nc1ncc(Br)c(Nc2cccc3c2N(S(C)(=O)=O)CC3)n1 (stereo not drawn) [Example 169, 3-(4-(3-((4-(1-(4-((5-bromo-4-((1-(methylsulfonyl)indolin-7-yl)amino)pyrimidin-2-yl)amino)-5-methoxy-2-methylphenyl)piperidin-4-yl)piperazin-1-yl)methyl)azetidin-1-yl)-2-fluorophenyl)piperidine-2,6-dione] | 39 nM | 57 nM |
| COc1cc(N2CCC(N3CCN(C(=O)[C@H]4C[C@H](N(C)c5ccc(C6CCC(=O)NC6=O)cc5)C4)CC3)CC2)c(C)cc1Nc1ncc(Br)c(Nc2cccc3c2N(S(C)(=O)=O)CC3)n1 (stereo partly drawn) [Example 170, 3-(4-(((1r,3r)-3-(4-(1-(4-((5-bromo-4-((1-(methylsulfonyl)indolin-7-yl)amino)pyrimidin-2-yl)amino)-5-methoxy-2-methylphenyl)piperidin-4-yl)piperazine-1-carbonyl)cyclobutyl)(methyl)amino)phenyl)piperidine-2,6-dione] | 8 nM | 23 nM |
| COc1cc(N2CCC(N3CCN(C(=O)C4CN(c5ccc6c(c5)C(=O)N(C5CCC(=O)NC5=O)C6)C4)CC3)CC2)c(C)cc1Nc1ncc(Br)c(Nc2cccc3c2N(S(C)(=O)=O)CC3)n1 (stereo not drawn) [Example 171, 3-(6-(3-(4-(1-(4-((5-bromo-4-((1-(methylsulfonyl)indolin-7-yl)amino)pyrimidin-2-yl)amino)-5-methoxy-2-methylphenyl)piperidin-4-yl)piperazine-1-carbonyl)azetidin-1-yl)-1-oxoisoindolin-2-yl)piperidine-2,6-dione] | 4 nM | 9 nM |
| COc1cc(N2CCC(N3CCN(CC4CCN(c5ccc6c(c5)CN(C5CCC(=O)NC5=O)C6=O)CC4)CC3)CC2)c(C)cc1Nc1ncc(Br)c(Nc2cccc3c2N(S(C)(=O)=O)CC3)n1 (stereo not drawn) [Example 175, 3-(5-(4-((4-(1-(4-((5-bromo-4-((1-(methylsulfonyl)indolin-7-yl)amino)pyrimidin-2-yl)amino)-5-methoxy-2-methylphenyl)piperidin-4-yl)piperazin-1-yl)methyl)piperidin-1-yl)-1-oxoisoindolin-2-yl)piperidine-2,6-dione] | 17 nM | 31 nM |
| COc1cc(N2CCC(N3CCN(C4CCN(c5cccc(C6CCC(=O)NC6=O)c5)CC4)CC3)CC2)c(C)cc1Nc1ncc(Br)c(Nc2cccc3c2N(S(C)(=O)=O)CC3)n1 (stereo not drawn) [Example 177, 3-(3-(4-(4-(1-(4-((5-bromo-4-((1-(methylsulfonyl)indolin-7-yl)amino)pyrimidin-2-yl)amino)-5-methoxy-2-methylphenyl)piperidin-4-yl)piperazin-1-yl)piperidin-1-yl)phenyl)piperidine-2,6-dione] | > 10000 nM | 123 nM |
| COc1cc(N2CCC(N3CCN(C(=O)C4CCN(c5ccc6c(c5)C(=O)N(C5CCC(=O)NC5=O)C6=O)CC4)CC3)CC2)c(C)cc1Nc1ncc(Cl)c(Nc2cccc3c2N(S(C)(=O)=O)CC3)n1 (stereo not drawn) [Example 178, 5-(4-(4-(1-(4-((5-chloro-4-((1-(methylsulfonyl)indolin-7-yl)amino)pyrimidin-2-yl)amino)-5-methoxy-2-methylphenyl)piperidin-4-yl)piperazine-1-carbonyl)piperidin-1-yl)-2-(2,6-dioxopiperidin-3-yl)isoindoline-1,3-dione] | 8 nM | 23 nM |
| COc1cc(N2CCC(N3CCN(CC4CN(c5ccc6c(c5)C(=O)N(C5CCC(=O)NC5=O)C6)C4)CC3)CC2)c(C)cc1Nc1ncc(Br)c(Nc2cccc3c2N(S(C)(=O)=O)CC3)n1 (stereo not drawn) [Example 180, 3-(6-(3-((4-(1-(4-((5-bromo-4-((1-(methylsulfonyl)indolin-7-yl)amino)pyrimidin-2-yl)amino)-5-methoxy-2-methylphenyl)piperidin-4-yl)piperazin-1-yl)methyl)azetidin-1-yl)-1-oxoisoindolin-2-yl)piperidine-2,6-dione] | 14 nM | 30 nM |

Continued by falling DC50 (EGFR DTC), values first:

| DC50 (EGFR DTC) | DC50 (EGFR LTC) | Compound |
| --- | --- | --- |
| 94 nM | 65 nM | COc1cc(N2CCC(N3CCN(C[C@H]4C[C@H](N(C)c5ccc(C6CCC(=O)NC6=O)cc5)C4)CC3)CC2)c(C)cc1Nc1ncc(Br)c(Nc2cccc3c2N(S(C)(=O)=O)CC3)n1 (stereo partly drawn) [Example 176, 3-(4-(((1r,3r)-3-((4-(1-(4-((5-bromo-4-((1-(methylsulfonyl)indolin-7-yl)amino)pyrimidin-2-yl)amino)-5-methoxy-2-methylphenyl)piperidin-4-yl)piperazin-1-yl)methyl)cyclobutyl)(methyl)amino)phenyl)piperidine-2,6-dione] |
| 77 nM | 70 nM | COc1cc(N2CCC(N3CCN(C4CC(c5ccc(NC6CCC(=O)NC6=O)cc5)C4)CC3)CC2)c(C)cc1Nc1ncc(Br)c(Nc2cccc3c2N(S(C)(=O)=O)CC3)n1 (stereo not drawn) [Example 182, 3-((4-(3-(4-(1-(4-((5-bromo-4-((1-(methylsulfonyl)indolin-7-yl)amino)pyrimidin-2-yl)amino)-5-methoxy-2-methylphenyl)piperidin-4-yl)piperazin-1-yl)cyclobutyl)phenyl)amino)piperidine-2,6-dione] |
| 43 nM | 64 nM | COc1cc(N2CCC(N3CCN(CC4CCN(c5cc(F)c(C6CCC(=O)NC6=O)c(F)c5)CC4)CC3)CC2)c(C)cc1Nc1ncc(Br)c(Nc2cccc3c2N(S(C)(=O)=O)CC3)n1 (stereo not drawn) [Example 181, 3-(4-(4-((4-(1-(4-((5-bromo-4-((1-(methylsulfonyl)indolin-7-yl)amino)pyrimidin-2-yl)amino)-5-methoxy-2-methylphenyl)piperidin-4-yl)piperazin-1-yl)methyl)piperidin-1-yl)-2,6-difluorophenyl)piperidine-2,6-dione] |
| 30 nM | 69 nM | COc1cc(N2CCC(N3CCN(CCc4cc(Cl)c(C5CCC(=O)NC5=O)cc4F)CC3)CC2)c(C)cc1Nc1ncc(Br)c(Nc2cccc3c2N(S(C)(=O)=O)CC3)n1 (stereo not drawn) [Example 174, 3-(4-(2-(4-(1-(4-((5-bromo-4-((1-(methylsulfonyl)indolin-7-yl)amino)pyrimidin-2-yl)amino)-5-methoxy-2-methylphenyl)piperidin-4-yl)piperazin-1-yl)ethyl)-2-chloro-5-fluorophenyl)piperidine-2,6-dione] |
| 15 nM | 27 nM | COc1cc(N2CCC(N3CCN(CCNc4cccc5c4CN(C4CCC(=O)NC4=O)C5=O)CC3)CC2)c(C)cc1Nc1ncc(Br)c(Nc2cccc3c2N(S(C)(=O)=O)CC3)n1 (stereo not drawn) [Example 173, 3-(4-((2-(4-(1-(4-((5-bromo-4-((1-(methylsulfonyl)indolin-7-yl)amino)pyrimidin-2-yl)amino)-5-methoxy-2-methylphenyl)piperidin-4-yl)piperazin-1-yl)ethyl)amino)-1-oxoisoindolin-2-yl)piperidine-2,6-dione] |

Source: US12643903B2, “Bifunctional compounds for degradation of EGFR and related methods of use” (BeiGene, Ltd., priority 2020, dated 2026)
